From ChEMBL document CHEMBL4251747 (Bioorg Med Chem, 2018)

Assays:
[1] = Solubility of the compound; type: physicochemical
[2] = target: Aurora kinase B/Inner centromere protein (Homo sapiens, UniProt Q96GD4); assay: Inhibition of human full length N-terminal GST-tagged Aurora B (1 to 344 end residues)/His-tagged INCENP (803 to 918 end residues) expressed in baculovirus expression system using fluorescence-labeled FL-Peptide 21 as substrate after 60 mins in presence of ATP by fluorescence assay based Cheng-Prusoff equation analysis
Chain of Aurora kinase B/Inner centromere protein (Q96GD4 whole entry): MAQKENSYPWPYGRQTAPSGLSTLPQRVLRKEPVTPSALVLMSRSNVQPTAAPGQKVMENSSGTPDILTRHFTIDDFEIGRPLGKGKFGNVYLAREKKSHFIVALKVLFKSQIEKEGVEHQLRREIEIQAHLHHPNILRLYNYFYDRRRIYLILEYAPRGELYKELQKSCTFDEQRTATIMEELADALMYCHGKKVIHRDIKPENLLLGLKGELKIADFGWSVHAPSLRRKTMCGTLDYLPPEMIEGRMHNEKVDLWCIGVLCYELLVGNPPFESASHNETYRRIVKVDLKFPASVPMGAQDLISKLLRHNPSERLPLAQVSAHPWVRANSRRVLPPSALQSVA
Chain of Aurora kinase B/Inner centromere protein (Q9NQS7 whole entry, further chain): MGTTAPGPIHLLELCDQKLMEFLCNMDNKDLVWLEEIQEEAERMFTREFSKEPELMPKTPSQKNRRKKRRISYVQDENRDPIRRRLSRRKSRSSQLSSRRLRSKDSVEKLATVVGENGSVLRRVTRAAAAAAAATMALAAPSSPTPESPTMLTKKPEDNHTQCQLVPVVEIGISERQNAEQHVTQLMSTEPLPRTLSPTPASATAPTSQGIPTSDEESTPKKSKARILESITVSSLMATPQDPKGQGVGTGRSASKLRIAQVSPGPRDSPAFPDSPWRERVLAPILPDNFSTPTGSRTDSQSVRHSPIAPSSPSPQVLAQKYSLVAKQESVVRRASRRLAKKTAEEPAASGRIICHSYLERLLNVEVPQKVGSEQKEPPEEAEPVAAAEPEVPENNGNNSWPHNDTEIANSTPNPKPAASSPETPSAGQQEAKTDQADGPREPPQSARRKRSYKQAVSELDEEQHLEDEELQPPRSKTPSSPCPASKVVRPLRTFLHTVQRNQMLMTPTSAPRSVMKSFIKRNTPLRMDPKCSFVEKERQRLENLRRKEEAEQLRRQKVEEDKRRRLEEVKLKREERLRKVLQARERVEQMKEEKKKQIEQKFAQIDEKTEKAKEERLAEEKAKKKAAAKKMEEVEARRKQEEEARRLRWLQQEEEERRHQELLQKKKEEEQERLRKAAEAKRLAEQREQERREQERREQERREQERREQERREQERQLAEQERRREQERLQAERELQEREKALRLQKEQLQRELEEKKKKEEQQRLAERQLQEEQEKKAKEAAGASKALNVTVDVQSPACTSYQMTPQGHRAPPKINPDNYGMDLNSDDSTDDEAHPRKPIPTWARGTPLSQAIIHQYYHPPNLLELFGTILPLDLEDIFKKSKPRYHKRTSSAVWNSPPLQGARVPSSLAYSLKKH

[3] = target: T1, Dual specificity protein kinase TTK (Homo sapiens, UniProt P33981); assay: Inhibition of full length human Mps1 using fluorescence-labeled H236 peptide as substrate after 60 to 90 mins in presence of ATP by fluorescence assay based Cheng-Prusoff equation analysis
T1 sequence (P33981 whole entry): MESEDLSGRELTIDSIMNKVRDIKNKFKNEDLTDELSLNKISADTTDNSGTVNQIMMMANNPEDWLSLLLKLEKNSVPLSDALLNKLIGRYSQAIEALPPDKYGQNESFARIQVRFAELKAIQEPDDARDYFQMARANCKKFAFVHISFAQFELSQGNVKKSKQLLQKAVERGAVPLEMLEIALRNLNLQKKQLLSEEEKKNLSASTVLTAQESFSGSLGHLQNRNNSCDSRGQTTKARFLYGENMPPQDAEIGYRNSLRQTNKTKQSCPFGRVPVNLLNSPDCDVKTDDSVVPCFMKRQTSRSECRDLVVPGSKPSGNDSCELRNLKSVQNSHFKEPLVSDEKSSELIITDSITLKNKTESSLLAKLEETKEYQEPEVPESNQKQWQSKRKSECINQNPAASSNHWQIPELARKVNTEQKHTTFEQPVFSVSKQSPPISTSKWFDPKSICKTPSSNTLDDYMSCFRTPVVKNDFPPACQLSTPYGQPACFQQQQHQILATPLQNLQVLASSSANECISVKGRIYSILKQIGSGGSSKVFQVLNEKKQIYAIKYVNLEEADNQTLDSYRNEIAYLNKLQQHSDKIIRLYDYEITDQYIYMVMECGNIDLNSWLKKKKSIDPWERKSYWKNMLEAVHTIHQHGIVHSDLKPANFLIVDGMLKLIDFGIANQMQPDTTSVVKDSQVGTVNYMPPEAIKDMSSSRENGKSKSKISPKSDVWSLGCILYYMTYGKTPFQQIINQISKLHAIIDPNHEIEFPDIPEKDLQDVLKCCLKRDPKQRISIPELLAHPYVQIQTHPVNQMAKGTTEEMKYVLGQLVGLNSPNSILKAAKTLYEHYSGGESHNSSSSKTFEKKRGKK

Aurora kinase A = target: T2, Aurora kinase A (Homo sapiens, UniProt O14965); assay: Inhibition of full length N-terminal His-tagged Aurora A (unknown origin) using fluorescence-labeled FL-Peptide 21 as substrate after 60 mins in presence of ATP by fluorescence assay based Cheng-Prusoff equation analysis
T2 sequence (O14965 whole entry): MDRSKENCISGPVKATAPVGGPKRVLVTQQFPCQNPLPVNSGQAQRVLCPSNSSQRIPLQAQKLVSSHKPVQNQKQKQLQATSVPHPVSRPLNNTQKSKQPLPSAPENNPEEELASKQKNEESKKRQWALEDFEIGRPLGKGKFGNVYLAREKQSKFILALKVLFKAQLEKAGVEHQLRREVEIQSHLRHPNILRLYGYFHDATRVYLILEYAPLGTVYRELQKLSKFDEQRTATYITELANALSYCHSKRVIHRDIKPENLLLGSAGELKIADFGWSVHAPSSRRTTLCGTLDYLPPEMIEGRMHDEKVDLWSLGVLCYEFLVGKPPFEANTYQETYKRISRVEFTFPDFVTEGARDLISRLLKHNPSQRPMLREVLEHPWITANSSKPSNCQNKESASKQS

| solubility [1] | Ki [2] | Ki [3] | Ki (Aurora kinase A) | SMILES |
| --- | --- | --- | --- | --- |
| Insoluble | – | – | – | O=C(Nc1cc(-c2ccncc2)c[nH]c1=O)c1ccccc1 |
| – | 12.9 µM | 367 µM | > 100 µM | CN(C)Cc1ccc(-c2c[nH]c(=O)c(N)c2)cc1 |
| – | 103 µM | 236 µM | 99.5 µM | Cn1cc(-c2ccncc2)cc(N)c1=O |
| Insoluble | – | – | – | CN1CCN(c2ccc(C(=O)Nc3cc(-c4ccncc4)c[nH]c3=O)cc2)CC1 |
| Insoluble | – | – | – | O=C(Nc1cc(-c2ccnc(NC3CC3)n2)c[nH]c1=O)c1ccccc1 |
